Measured values published in ChEMBL document CHEMBL4699602, “Stapled and Xenopus Glucagon-Like Peptide 1 (GLP-1)-Based Dual GLP-1/Gastrin Receptor Agonists with Improved Metabolic Benefits in Rodent Models of Obesity and Diabetes” (J Med Chem, 2020).
The source made the active and inactive calls. The calls are words filed in the database; no cut-off is given here. *1 amine or outer side, *2 acyl side, *3 side chain or, on linkers, in order; H or OH if unused. Where a SMILES comes first, the peptide text is derived from it. Bridges are numbered along the chain shown (N, C = ends). [ ]: non-standard residue; d: D form. X4 = O=C(O)CCCCCCCCCCCCCCCCC(=O)NC(CCC(=O)NCCOCCOCC(=O)NCCOCCOCC(=O)NCCCCCCNC(=O)C(CCCCNC(=O)CCN1C(=O)CC([*:1])C1=O)NC(=O)CCN1C(=O)CC([*:2])C1=O)C(=O)O; X2 = O=C(O)CCCCCCCCCCCCCCCCC(=O)NC(CCC(=O)NCCOCCOCC(=O)NCCCCCCNC(=O)C(CCCCNC(=O)CCN1C(=O)CC([*:2])C1=O)NC(=O)CCN1C(=O)CC([*:1])C1=O)C(=O)O; X3 = O=C(O)CCCCCCCCCCCCCCCCC(=O)NC(CCC(=O)NCCOCCOCC(=O)NCCCCCCNC(=O)C(CCCCNC(=O)CCN1C(=O)CC([*:1])C1=O)NC(=O)CCN1C(=O)CC([*:2])C1=O)C(=O)O; X7 = O=C(O)CCCCCCCCCCCCCCCCC(=O)NCCOCCOCC(=O)NCCCCCCNC(=O)C(CCCCNC(=O)CCN1C(=O)CC([*:1])C1=O)NC(=O)CCN1C(=O)CC([*:2])C1=O; X8 = O=C(O)CCCCCCCCCCCCCCCCC(=O)NCCOCCOCC(=O)NCCCCCCNC(=O)C(CCCCNC(=O)CCN1C(=O)CC([*:2])C1=O)NC(=O)CCN1C(=O)CC([*:1])C1=O; X1 = CCCCCCCCCCCCCCCC(=O)NCCCCCCNC(=O)C(CCCCNC(=O)CCN1C(=O)CC([*:1])C1=O)NC(=O)CCN1C(=O)CC([*:2])C1=O; X6 = CCCCCCCCCCCCCCCC(=O)NCCCCCCNC(=O)C(CCCCNC(=O)CCN1C(=O)CC([*:2])C1=O)NC(=O)CCN1C(=O)CC([*:1])C1=O; Aib = CC(C)(N)C(=O)O

Assays:
Mus musculus = test: Hypoglycemic activity in ICR mouse assessed as decrease in blood glucose concentration at 25 nmol/kg, ip dosed 15 mins before test and measured up to 120 mins by OGTT method; type: functional, organism-based
[1] = target: T1, Glucagon-like peptide 1 receptor (Homo sapiens, UniProt P43220); test: Agonist activity at human GLP-1R expressed in HEK293 cells assessed as stimulation of cAMP accumulation incubated for 20 mins; type: functional, cell-based
[2] = target: T1, Glucagon-like peptide 1 receptor; test: Agonist activity at human GLP-1R expressed in HEK293 cells assessed as stimulation of cAMP accumulation incubated for 20 mins in presence of 4.4% HSA; type: functional, cell-based
[3] = target: T1, Glucagon-like peptide 1 receptor; test: Ratio of EC50 for agonist activity at human GLP-1R expressed in HEK293 cells in presence of 4.4% HSA to EC50 for agonist activity at human GLP-1R expressed in HEK293 cells in presence of 0% HSA; type: cell-based
[4] = target: T1, Glucagon-like peptide 1 receptor; test: Agonist activity at human GLP-1R expressed in HEK293 cells assessed as stimulation of cAMP accumulation incubated for 20 mins in presence of 0% HSA; type: functional, cell-based

T1 sequence (P43220 whole entry): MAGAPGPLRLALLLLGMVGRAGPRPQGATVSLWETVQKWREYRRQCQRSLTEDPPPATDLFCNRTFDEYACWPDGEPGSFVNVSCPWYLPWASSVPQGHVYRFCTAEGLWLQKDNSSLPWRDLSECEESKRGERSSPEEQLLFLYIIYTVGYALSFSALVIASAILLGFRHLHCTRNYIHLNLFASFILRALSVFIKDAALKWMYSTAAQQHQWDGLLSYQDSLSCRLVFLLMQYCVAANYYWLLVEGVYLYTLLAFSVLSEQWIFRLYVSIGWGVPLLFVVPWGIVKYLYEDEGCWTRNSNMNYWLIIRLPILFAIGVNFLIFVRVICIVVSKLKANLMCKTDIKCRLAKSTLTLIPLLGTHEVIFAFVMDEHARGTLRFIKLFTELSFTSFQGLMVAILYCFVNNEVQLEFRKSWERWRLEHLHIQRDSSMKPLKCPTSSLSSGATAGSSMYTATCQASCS

EC50 [2]	Ratio EC50 [3]	EC50 [4]	Compound	Activity (Mus musculus)	EC50 [1]
			CC[C@H](C)[C@H](NC(=O)[C@H](Cc1ccccc1)NC(=O)[C@H](CCC(=O)O)NC(=O)[C@H](CCCCN)NC(=O)[C@H](C)NC(=O)[C@H](C)NC(=O)[C@H](CCC(N)=O)NC(=O)CNC(=O)[C@H](CCC(=O)O)NC(=O)[C@H](CC(C)C)NC(=O)[C@H](Cc1ccc(O)cc1)NC(=O)[C@H](CO)NC(=O)[C@H](CO)NC(=O)[C@@H](NC(=O)[C@H](CC(=O)O)NC(=O)[C@H](CO)NC(=O)[C@@H](NC(=O)[C@H](Cc1ccccc1)NC(=O)[C@@H](NC(=O)CNC(=O)[C@H](CCC(=O)O)NC(=O)[C@H](C)NC(=O)[C@@H](N)Cc1cnc[nH]1)[C@@H](C)O)[C@@H](C)O)C(C)C)C(=O)N[C@@H](C)C(=O)N[C@@H](Cc1c[nH]c2ccccc12)C(=O)N[C@@H](CC(C)C)C(=O)N[C@H](C(=O)N[C@@H](CCCCN)C(=O)NCC(=O)N[C@@H](CCCNC(=N)N)C(=O)O)C(C)C	Active	
			CC[C@H](C)[C@H](NC(=O)[C@H](CC(C)C)NC(=O)[C@H](Cc1c[nH]c2ccccc12)NC(=O)[C@H](CCC(=O)O)NC(=O)[C@@H](NC(=O)[C@H](Cc1ccccc1)NC(=O)[C@H](CS)NC(=O)[C@H](CCCCN)NC(=O)[C@H](C)NC(=O)[C@H](C)NC(=O)[C@H](CCC(=O)O)NC(=O)[C@H](CCC(=O)O)NC(=O)[C@H](CCC(=O)O)NC(=O)[C@H](CS)NC(=O)[C@H](Cc1ccc(O)cc1)NC(=O)[C@H](CCC(=O)O)NC(=O)[C@@H](NC(=O)[C@@H](NC(=O)[C@H](CC(=O)O)NC(=O)[C@H](CC(N)=O)NC(=O)[C@@H](NC(=O)[C@H](Cc1ccc(O)cc1)NC(=O)[C@@H](NC(=O)CNC(=O)[C@H](CCC(=O)O)NC(=O)C(C)(C)NC(=O)[C@@H](N)Cc1c[nH]cn1)[C@@H](C)O)[C@@H](C)O)C(C)C)[C@@H](C)O)[C@@H](C)CC)C(=O)N[C@@H](CCCCN)C(=O)NCC(=O)N[C@@H](CCCCN)C(=O)N1CCC[C@H]1C(=O)N[C@@H](CO)C(=O)N[C@@H](CO)C(=O)NCC(=O)N[C@@H](C)C(=O)N1CCC[C@H]1C(=O)N1CCC[C@H]1C(=O)N1CCC[C@H]1C(=O)N[C@@H](CO)C(N)=O (HELM PEPTIDE1{H.[Aib].E.G.T.Y.T.N.D.V.T.E.Y.C.E.E.E.A.A.K.C.F.I.E.W.L.I.K.G.K.P.S.S.G.A.P.P.P.S.[am]}$$$$V2.0)	Active	0.042 nM
			CC[C@H](C)[C@H](NC(=O)[C@H](CC(C)C)NC(=O)[C@H](Cc1c[nH]c2ccccc12)NC(=O)[C@H](CCC(=O)O)NC(=O)[C@@H](NC(=O)[C@H](Cc1ccccc1)NC(=O)[C@H](CS)NC(=O)[C@H](CCCCN)NC(=O)[C@H](C)NC(=O)[C@H](C)NC(=O)[C@H](CCC(=O)O)NC(=O)[C@H](CCC(=O)O)NC(=O)[C@H](CCC(=O)O)NC(=O)[C@H](CS)NC(=O)[C@H](Cc1ccc(O)cc1)NC(=O)[C@H](CCC(=O)O)NC(=O)[C@@H](NC(=O)[C@@H](NC(=O)[C@H](CC(=O)O)NC(=O)[C@H](CC(N)=O)NC(=O)[C@@H](NC(=O)[C@H](Cc1ccc(O)cc1)NC(=O)[C@@H](NC(=O)CNC(=O)[C@H](CCC(=O)O)NC(=O)C(C)(C)NC(=O)[C@@H](N)Cc1c[nH]cn1)[C@@H](C)O)[C@@H](C)O)C(C)C)[C@@H](C)O)[C@@H](C)CC)C(=O)N[C@@H](CCCCN)C(=O)NCC(=O)N[C@@H](CCCCN)C(N)=O (HELM PEPTIDE1{H.[Aib].E.G.T.Y.T.N.D.V.T.E.Y.C.E.E.E.A.A.K.C.F.I.E.W.L.I.K.G.K.[am]}$$$$V2.0)	Active	0.066 nM
			CC[C@H](C)[C@H](NC(=O)[C@H](CC(C)C)NC(=O)[C@H](Cc1c[nH]c2ccccc12)NC(=O)[C@H](CCC(=O)O)NC(=O)[C@@H](NC(=O)[C@H](Cc1ccccc1)NC(=O)[C@H](CS)NC(=O)[C@H](CCCCN)NC(=O)[C@H](C)NC(=O)[C@H](C)NC(=O)[C@H](CCC(=O)O)NC(=O)[C@H](CCC(=O)O)NC(=O)[C@H](CCC(=O)O)NC(=O)[C@H](CC(C)C)NC(=O)[C@H](Cc1ccc(O)cc1)NC(=O)[C@H](CCC(=O)O)NC(=O)[C@@H](NC(=O)[C@@H](NC(=O)[C@H](CC(=O)O)NC(=O)[C@H](CC(N)=O)NC(=O)[C@@H](NC(=O)[C@H](Cc1ccc(O)cc1)NC(=O)[C@@H](NC(=O)CNC(=O)[C@H](CCC(=O)O)NC(=O)C(C)(C)NC(=O)[C@@H](N)Cc1c[nH]cn1)[C@@H](C)O)[C@@H](C)O)C(C)C)[C@@H](C)O)[C@@H](C)CC)C(=O)N[C@@H](CS)C(=O)NCC(=O)N[C@@H](CCCCN)C(=O)N1CCC[C@H]1C(=O)N[C@@H](CO)C(=O)N[C@@H](CO)C(=O)NCC(=O)N[C@@H](C)C(=O)N1CCC[C@H]1C(=O)N1CCC[C@H]1C(=O)N1CCC[C@H]1C(=O)N[C@@H](CO)C(N)=O (HELM PEPTIDE1{H.[Aib].E.G.T.Y.T.N.D.V.T.E.Y.L.E.E.E.A.A.K.C.F.I.E.W.L.I.C.G.K.P.S.S.G.A.P.P.P.S.[am]}$$$$V2.0)	Active	0.052 nM
18.2 nM	95.8	0.19 nM	CC[C@H](C)[C@@H]1NC(=O)[C@H](CC(C)C)NC(=O)[C@H](Cc2c[nH]c3ccccc23)NC(=O)[C@H](CCC(=O)O)NC(=O)[C@H]([C@@H](C)CC)NC(=O)[C@H](Cc2ccccc2)NC(=O)[C@@H](NC(=O)[C@H](CCCCN)NC(=O)[C@H](C)NC(=O)[C@H](C)NC(=O)[C@H](CCC(=O)O)NC(=O)[C@H](CCC(=O)O)NC(=O)[C@H](CCC(=O)O)NC(=O)[C@H](CC(C)C)NC(=O)[C@H](Cc2ccc(O)cc2)NC(=O)[C@H](CCC(=O)O)NC(=O)[C@@H](NC(=O)[C@@H](NC(=O)[C@H](CC(=O)O)NC(=O)[C@H](CC(N)=O)NC(=O)[C@@H](NC(=O)[C@H](Cc2ccc(O)cc2)NC(=O)[C@@H](NC(=O)CNC(=O)[C@H](CCC(=O)O)NC(=O)C(C)(C)NC(=O)[C@@H](N)Cc2c[nH]cn2)[C@@H](C)O)[C@@H](C)O)C(C)C)[C@@H](C)O)CSC2CC(=O)N(CCC(=O)NC(C(=O)NCCCCCCNC(=O)COCCOCCNC(=O)COCCOCCNC(=O)CCC(NC(=O)CCCCCCCCCCCCCCCCC(=O)O)C(=O)O)CCCCNC(=O)CCN3C(=O)CC(SC[C@@H](C(=O)NCC(=O)N[C@@H](CCCCN)C(N)=O)NC1=O)C3=O)C2=O (some centres undefined) (HELM PEPTIDE1{H.[Aib].E.G.T.Y.T.N.D.V.T.E.Y.L.E.E.E.A.A.K.C.F.I.E.W.L.I.C.G.K.[am]}|CHEM1{[O=C(O)CCCCCCCCCCCCCCCCC(=O)NC(CCC(=O)NCCOCCOCC(=O)NCCOCCOCC(=O)NCCCCCCNC(=O)C(CCCCNC(=O)CCN1C(=O)CC([*:2])C1=O)NC(=O)CCN1C(=O)CC([*:1])C1=O)C(=O)O]}$PEPTIDE1,CHEM1,21:R3-1:R1|PEPTIDE1,CHEM1,28:R3-1:R2$$$V2.0)		
2.6 nM	13.7	0.19 nM	CC[C@H](C)[C@@H]1NC(=O)[C@H](CC(C)C)NC(=O)[C@H](Cc2c[nH]c3ccccc23)NC(=O)[C@H](CCC(=O)O)NC(=O)[C@H]([C@@H](C)CC)NC(=O)[C@H](Cc2ccccc2)NC(=O)[C@@H](NC(=O)[C@H](CCCCN)NC(=O)[C@H](C)NC(=O)[C@H](C)NC(=O)[C@H](CCC(=O)O)NC(=O)[C@H](CCC(=O)O)NC(=O)[C@H](CCC(=O)O)NC(=O)[C@H](CC(C)C)NC(=O)[C@H](Cc2ccc(O)cc2)NC(=O)[C@H](CCC(=O)O)NC(=O)[C@@H](NC(=O)[C@@H](NC(=O)[C@H](CC(=O)O)NC(=O)[C@H](CC(N)=O)NC(=O)[C@@H](NC(=O)[C@H](Cc2ccc(O)cc2)NC(=O)[C@@H](NC(=O)CNC(=O)[C@H](CCC(=O)O)NC(=O)C(C)(C)NC(=O)[C@@H](N)Cc2c[nH]cn2)[C@@H](C)O)[C@@H](C)O)C(C)C)[C@@H](C)O)CSC2CC(=O)N(CCC(=O)NC(C(=O)NCCCCCCNC(=O)COCCOCCNC(=O)CCCCCCCCCCCCCCCCC(=O)O)CCCCNC(=O)CCN3C(=O)CC(SC[C@@H](C(=O)NCC(=O)N[C@@H](CCCCN)C(N)=O)NC1=O)C3=O)C2=O (some centres undefined) (HELM PEPTIDE1{H.[Aib].E.G.T.Y.T.N.D.V.T.E.Y.L.E.E.E.A.A.K.C.F.I.E.W.L.I.C.G.K.[am]}|CHEM1{[O=C(O)CCCCCCCCCCCCCCCCC(=O)NCCOCCOCC(=O)NCCCCCCNC(=O)C(CCCCNC(=O)CCN1C(=O)CC([*:2])C1=O)NC(=O)CCN1C(=O)CC([*:1])C1=O]}$PEPTIDE1,CHEM1,21:R3-1:R1|PEPTIDE1,CHEM1,28:R3-1:R2$$$V2.0)		
1.4 nM	15.1	0.093 nM	H-H[Aib]EGTYTNDVTEYCEEEAAKCFIEWLIKGKPSSGAPPSKKKKKK-NH2 (linker 14-21 via X1)		
6.5 nM	40.6	0.16 nM	H-H[Aib]EGTYTNDVTEYCEEEAAKCFIEWLIKGKPSSGAPPSKKKKKK-NH2 (linker 14-21 via X3)		
12.7 nM	84.7	0.15 nM	H-H[Aib]EGTYTNDVTEYCEEEAAKCFIEWLIKGKPSSGAPPSKKKKKK-NH2 (linker 14-21 via X4)		
1.4 nM	14	0.1 nM	H-H[Aib]EGTYTNDVTEYCEEEAAKCFIEWLIKGKPSSGAPPSKKKKKK-NH2 (linker 14-21 via X7)		
6.9 nM	38.3	0.18 nM	H-H[Aib]EGTYTNDVTEYLEEEAAKCFIEWLICGKPSSGAPPSKKKKKK-NH2 (linker 21-28 via X2)		
1.9 nM	13.6	0.14 nM	H-H[Aib]EGTYTNDVTEYLEEEAAKCFIEWLICGKPSSGAPPSKKKKKK-NH2 (linker 21-28 via X6)		
1.5 nM	12.5	0.12 nM	H-H[Aib]EGTYTNDVTEYLEEEAAKCFIEWLICGKPSSGAPPSKKKKKK-NH2 (linker 21-28 via X8)		
